Legend:
TYK2-JH2 = molecular target: T1, TYK2-JH2 (Homo sapiens, UniProt P29597); assay: TYK2-JH2 HTRF binding assay (ligand efficiency); conditions: calculated from IC50 of the TYK-JH2 binding assay (Equation 1)
T1 construct: TYK JH2 enzyme mix (ChemPartnec CP20210818A-BV); purchased ChemPartner CP20210818A-BV
Description: The following example describes the TYK2-JH2 HTRF binding assay used to determine the ligand efficiency of the TYK2 inhibitors.
To calculate ligand efficiency, Equation 1 is applied:
[formula] in which IC50 comes from the binding assay used to determine compound potency.
TYK JH2 enzyme mix (ChemPartnec CP20210818A-BV), tracer (ChemPartnec CP-0029472-051) and mAb Anti-6HIS Tb cryptate Gold (Cisbio: Cat No. 61H12TLA) mix were prepared in assay buffer (10 mM MgCl2, 20 mM HEPES pH 7.5, 0.01% Triton X-100, 1 mM DTT). Compounds diluted in DMSO (Final Concentrations 0.1 to 0.000005 [μM]) and enzyme mix (0.5 nM Final Concentration) were added to 384 well plates, briefly centrifuged and incubated at room temperature for 10 minutes. After incubation, tracer mix (Tracer-35 nM final concentration); (Mab Anti-6HIS Tb cryptate Gold-0.5× final)) was added, briefly centrifuged then incubate at room temperature 60 minutes. After incubation, plates were read by Envision TR-FRET (Ex340/Em495/520) protocol (PerkinElmer-Envision 2104 multilabel plate reader).

IL-12/pSTAT4 = assay: IL-12 induced pSTAT4 assay in NK-92 cells; format: cell-based; conditions: Homo sapiens, NK92, IL-12 stimulation, read-out: Cellular potency (IL-12/pSTAT4)
Description: The following example describes the IL-12 induced pSTAT4 assay used to determine the cellular potency (IL-12/pSTAT4) of the TYK2 inhibitors.
NK-92 cells (human natural killer lymphoma cell line) were cultured in MEM α, nucleosides (Life Technologies, 22571020) 12.5% heat inactivated FBS (Dominique Dutscher, S1810), 12.5% heat inactivated Horse serum (Life Technologies, 26050088) and 1% Penicillin-Streptomycin (Life Technologies, 15140122), 5 ng/mL human IL-2 (R&D systems, 202-II/CF), 0.2 mM inositol (Sigma, PHR1351 lot LRAC4118), 0.1 mM β-mercaptoethanol (Life Technologies, 31350010), and 0.02 mM folic acid (Sigma, F8758).
NK-92 cells were starved overnight in starvation medium (Opti-MEM (ThermoFisher, 11058-021), 10% charcoal stripped FBS (ThermoFisher 12676-029), and 1% Penicillin (100U/ml)-Streptomycin (100 μg/ml) (ThermoFisher, ref 15140122)), then plated in a 96-well tissue culture plate (20K cells/well) prior to pre-incubation with test compounds (Final Concentration [nM] 1000 to 0.05) for 30 minutes at 37° C. Cells were stimulated with IL-12 (Final Concentration l0 ng/ml) for 30 minutes at 37° C., and terminated by addition of lysis buffer (MSD K150PAD-2). pSTAT4 (Tyr693) was detected using the Mesa Scale Discovery platform (MSD K150PAD-2), according to manufacturer's instruction. Briefly, cell lysates were added to pre-blocked plates and incubated for 1 hour at room temperature. Plates were washed and incubated with detection antibody for 1 hour at room temperature. Plates were washed and Read Buffer was added prior to measurement on the MSD (1300 MSD Quickplex SQ 120).

T1 sequence (P29597 589-875 limits assumed): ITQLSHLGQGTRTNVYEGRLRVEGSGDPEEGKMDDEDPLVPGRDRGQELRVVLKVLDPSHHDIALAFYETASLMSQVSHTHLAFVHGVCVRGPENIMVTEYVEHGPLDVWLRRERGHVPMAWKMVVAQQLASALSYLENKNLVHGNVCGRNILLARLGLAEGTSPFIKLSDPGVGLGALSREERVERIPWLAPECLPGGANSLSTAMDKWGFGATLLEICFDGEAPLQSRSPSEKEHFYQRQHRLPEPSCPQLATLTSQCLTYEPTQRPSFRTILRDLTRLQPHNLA

| SMILES | Ligand Efficiency (TYK2-JH2) | IC50 (IL-12/pSTAT4) |
| --- | --- | --- |
| CS(=O)(=O)c1ccccc1Nc1cc(Nc2ccc(C(=O)NC3COC3)cn2)ncn1 [Compound 79, 6-((6-((2-(methylsulfonyl)phenyl)amino)pyrimidin-4-yl)amino)-N-(oxetan-3-yl)nicotinamide] | †† (††: 0.37-0.39) | > 1000 nM |
| C[C@H]1COCCN1c1ccc(Nc2cc(Nc3ccccc3S(C)(=O)=O)ncn2)nc1 [Compound 54, (S)—N^4-(5-(3-methylmorpholino)144yridine-2-yl)-N^6-(2-(methylsulfonyl)phenyl)pyrimidine-4,6-diamine] | † (†: <0.37) | > 1000 nM |
| CS(=O)(=O)c1cccnc1Nc1cc(Nc2ccc(N3CCC4(CCO4)CC3)cn2)ncn1 [Compound 24, N^4-(5-(1-oxa-7-azaspiro[3.5]nonan-7-yl)104yridine-2-yl)-N^6-(3-(methylsulfonyl)104yridine-2-yl)pyrimidine-4,6-diamine] | †† (††: 0.37-0.39) | < 100 nM |
| CS(=O)(=O)c1cccnc1Nc1cc(Nc2ccc(NC3CC(F)(F)C3)cn2)ncn1 [Compound 37, N^4-(5-(3,3-difluorocyclobutylamino)124yridine-2-yl)-N^6-(3-(methylsulfonyl)124yridine-2-yl)pyrimidine-4,6-diamine] | ††† (†††: >0.39) | < 100 nM |
| Cn1cc(-c2ccnc(Nc3cc(Nc4ccc(NC5(C)COC5)cn4)ncn3)c2S(C)(=O)=O)cn1 [Compound 72, N^4-(4-(1-methyl-1H-pyrazol-4-yl)-3-(methylsulfonyl)164yridine-2-yl)-N^6-(5-(3-methyloxetan-3-ylamino)164yridine-2-yl)pyrimidine-4,6-diamine] | † (†: <0.37) | > 1000 nM |
| C[C@@H](c1ccc(Nc2cc(Nc3ncccc3S(C)(=O)=O)ncn2)nc1)N1CC2(CCOC2)C1 [Compound 32, (S)—N^4-(5-(1-(6-oxa-2-azaspiro[3.4]octan-2-yl)ethyl)114yridine-2-yl)-N^6-(3-(methylsulfonyl)114yridine-2-yl)pyrimidine-4,6-diamine] | ††† (†††: >0.39) | < 100 nM |
| CS(=O)(=O)c1ccccc1Nc1cc(Nc2ccc(NC3COC3)cn2)ncn1 [Compound 80, N^4-(2-(methylsulfonyl)phenyl)-N^6-(5-(oxetan-3-ylamino)177yridine-2-yl) pyrimidine-4,6-diamine] | † (†: <0.37) | > 1000 nM |
| Cc1cccc(Nc2cc(Nc3ncccc3C(N)=O)ncn2)n1 [Compound 52, 2-((6-((6-methylpyridin-2-yl)amino)pyrimidin-4-yl)amino) nicotinamide] | ††† (†††: >0.39) | 100 to 1000 nM |
| COc1ccc(Nc2cc(NC(=O)C3CC3)ncn2)c(C(N)=O)c1 [Compound 70, 2-((6-(cyclopropanecarboxamido)pyrimidin-4-yl)amino)-5-methoxy benzamide] | ††† (†††: >0.39) | > 1000 nM |
| Cc1ccnc(Nc2cc(Nc3ccccc3C(N)=O)ncn2)n1 [Compound 58, 2-(6-(4-methylpyrimidin-2-ylamino)pyrimidin-4-ylamino)benzamide] | ††† (†††: >0.39) | > 1000 nM |
| Cc1cccc(Nc2cc(Nc3ccncc3C(N)=O)ncn2)n1 [Compound 51, 4-((6-((6-methylpyridin-2-yl)amino)pyrimidin-4-yl)amino) nicotinamide] | ††† (†††: >0.39) | > 1000 nM |
| Cn1ccc(Nc2cc(Nc3ccccc3S(C)(=O)=O)ncn2)n1 [Compound 66, N^4-(1-methyl-1H-pyrazol-3-yl)-N^6-(2-(methylsulfonyl)phenyl) pyrimidine-4,6-diamine] | ††† (†††: >0.39) | > 1000 nM |
| Cc1ccnc(Nc2cc(Nc3ccccc3P(C)(C)=O)ncn2)c1 [Compound 63, N^4-(2-(dimethylphosphoryl)phenyl)-N^6-(4-methylpyridin-2-yl) pyrimidine-4,6-diamine] | ††† (†††: >0.39) | 100 to 1000 nM |
| Cc1nccc(Nc2cc(Nc3ccccc3C(N)=O)ncn2)n1 [Compound 48, 2-((6-((2-methylpyrimidin-4-yl)amino)pyrimidin-4-yl)amino) benzamide] | ††† (†††: >0.39) | 100 to 1000 nM |
| C[C@@H](c1ccc(Nc2cc(Nc3ncccc3S(C)(=O)=O)ncn2)nc1)N1CCCC1 [Compound 15, I-N^4-(3-(methylsulfonyl)97yridine-2-yl)-N^6-(5-(1-(97yridine9797e-1-yl)ethyl)97yridine-2-yl)pyrimidine-4,6-diamine] | ††† (†††: >0.39) | < 100 nM |
| CS(=O)(=O)c1ccccc1Nc1cc(Nc2ccc(N3CCOCC3)cn2)ncn1 [Compound 42, N^4-(2-(methylsulfonyl)phenyl)-N^6-(5-morpholinopyridin-2-yl) pyrimidine-4,6-diamine] | ††† (†††: >0.39) | 100 to 1000 nM |

— patent publication US12358904B2, “Inhibitors of TYK2” (Atomwise Inc., priority 2023, dated 2025)
